Measured values from PubChem BioAssay (NCI).
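48-hour exposure; five concentrations; linearly interpolated endpoints. TGI marks complete inhibition of growth.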

How the values were obtained:
Assay in all cases: inhibition of tumour cell growth, NCI panel, 48 h
ACHN renal = test system: ACHN renal
SNB-75 CNS = test system: SNB-75 CNS
RPMI-8226 leukemia = test system: RPMI-8226 leukemia
SR leukemia = test system: SR leukemia
SF-295 CNS = test system: SF-295 CNS
LOX IMVI melanoma = test system: LOX IMVI melanoma
SK-MEL-2 melanoma = test system: SK-MEL-2 melanoma
NCI-H460 lung = test system: NCI-H460 lung
MOLT-4 leukemia = test system: MOLT-4 leukemia

Measured: TGI

CCP(=O)(CC)C(Cl)Cl
> 100 µM: ACHN renal | SNB-75 CNS | RPMI-8226 leukemia | SR leukemia | SF-295 CNS | LOX IMVI melanoma | SK-MEL-2 melanoma | NCI-H460 lung | MOLT-4 leukemia
